How the values were obtained:
Assay type in all cases: in vivo
Boophilus microplus = Boophilus microplus injection test (BOOPMI Injection); details: Rhipicephalus microplus, 168 h, injection into adult engorged female ticks, egg deposition after 7 days, read-out: activity (efficacy, infertile eggs)
Method in brief: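 Adult engorged female ticks (5 per group) injected into the abdomen with 1 μL compound in DMSO, then held in a climate chamber. Fertile egg deposition scored after 7 days, with unclear eggs kept until hatching (~42 days). Efficacy 100% = all eggs infertile, 0% = all fertile.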

Rhipicephalus sanguineus = Rhipicephalus sanguineus in-vitro contact test, adult brown dog ticks (RHIPSA Contact); details: 5 μg/cm^2 (=500 g/ha), after 48 hours, read-out: activity (efficacy, ticks dead or moribund)
Method in brief: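 Acetone solution coated onto glass tube walls; 900 ppm gives 5 μg/cm^2. After drying, 5-10 adult ticks per tube kept at room temperature for 48 h, then placed on a 45-50° C heating plate up to 5 min; ticks unable to climb away counted dead or moribund, efficacy as % affected.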

[1] = system: Culex quinquefasciatus strain P00; assay: Culex quinquefasciatus test (CULXFA surface treatment & contact assay); details: 30 minutes exposure, 24 hours after contact, read-out: efficacy (mortality)
Method: Culex quinquefasciatus Test (CULXFA Surface Treatment & Contact Assay)
Solvent: Aceton+2000 ppm rapeseed oil methyl ester (RME)
In order to produce a sufficient, active ingredient containing solution it is necessary to solve the test compound in the solvent-mix (acetone at 2 mg/mL/RME 2 000 ppm). This solution is pipetted onto a glazed tile and after evaporation of the acetone, adult mosquitoes of the species Culex quinquefasciatus strain P00 are placed onto the dried surface. The exposure time is 30 minutes.
Mortality in percent (%) is determined 24 hours after contact of the insects to the treated surface. 100% mortality means that all tested insects are dead, whereas 0% means that no insect died.

`C[C@H](Nc1nc2cc(C(F)(F)F)c(Cl)cc2o1)c1ncnn1-c1ncccn1` [Example I-001, 6-chloro-N-{(1S)-1-[1-(pyrimidin-2-yl)-1H-1,2,4-triazol-5-yl]ethyl}-5-(trifluoromethyl)-1,3-benzoxazol-2-amine] was tested, and the pest or weed control at 0.004 mg (Boophilus microplus; 4 μg/animal) was 100%, the pest or weed control at 0.02 mg (Boophilus microplus; 20 μg/animal) was 100% and the pest or weed control at 5 µg/cm2, 5 µg/cm2 (Rhipicephalus sanguineus) was 100%. For the same compound, the mortality at 4 mg/m2 ([1]; surface concentration 4 mg/m^2, glazed tile) was 90 to 100% and the mortality at 20 mg/m2 ([1]; surface concentration 20 mg/m^2, glazed tile) was 90 to 100%.

From patent US12384769B2, “Heteroaryl-substituted aminoalkyl azole compounds as pesticides” (Elanco Animal Health GmbH, priority 2019, dated 2025)
